Source: ChEMBL document CHEMBL5360539, “RSK inhibitors as potential anticancer agents: Discovery, optimization, and challenges” (Eur J Med Chem, 2023)
Structures can show the parent of a compound that is named as a salt. One block for each compound: values may come before it.

Key:
[1] = molecular target: Ribosomal protein S6 kinase alpha-1 (Homo sapiens, UniProt Q15418); assay: Inhibition of RSK1 (unknown origin)
[2] = molecular target: T1, Ribosomal protein S6 kinase alpha-3 (Homo sapiens, UniProt P51812); assay: Inhibition of recombinant His-tagged RSK2 (unknown origin) expressed in Sf9 cells
[3] = molecular target: T1, Ribosomal protein S6 kinase alpha-3; assay: Inhibition of RSK2 expressed in human MCF7 cells incubated for 1 hrs by; type: cell-based
[4] = molecular target: Ribosomal protein S6 kinase alpha-6 (Homo sapiens, UniProt Q9UK32); assay: Inhibition of RSK4 (unknown origin)
[5] = molecular target: T1, Ribosomal protein S6 kinase alpha-3; assay: Inhibition of human recombinant RSK2
[6] = molecular target: T1, Ribosomal protein S6 kinase alpha-3; assay: Inhibition of wild type RSK2 (unknown origin)
[7] = molecular target: T1, Ribosomal protein S6 kinase alpha-3; assay: Inhibition of RSK2 (unknown origin)
[8] = molecular target: Ribosomal protein S6 kinase alpha-2 (Homo sapiens, UniProt Q15349); assay: Inhibition of RSK3 (unknown origin)
[9] = Inhibition of recombinant N-terminal RSK (unknown origin) expressed in Sf21 cells; design: species or system Homo sapiens

Chain of Ribosomal protein S6 kinase alpha-1 (Q15418 whole entry): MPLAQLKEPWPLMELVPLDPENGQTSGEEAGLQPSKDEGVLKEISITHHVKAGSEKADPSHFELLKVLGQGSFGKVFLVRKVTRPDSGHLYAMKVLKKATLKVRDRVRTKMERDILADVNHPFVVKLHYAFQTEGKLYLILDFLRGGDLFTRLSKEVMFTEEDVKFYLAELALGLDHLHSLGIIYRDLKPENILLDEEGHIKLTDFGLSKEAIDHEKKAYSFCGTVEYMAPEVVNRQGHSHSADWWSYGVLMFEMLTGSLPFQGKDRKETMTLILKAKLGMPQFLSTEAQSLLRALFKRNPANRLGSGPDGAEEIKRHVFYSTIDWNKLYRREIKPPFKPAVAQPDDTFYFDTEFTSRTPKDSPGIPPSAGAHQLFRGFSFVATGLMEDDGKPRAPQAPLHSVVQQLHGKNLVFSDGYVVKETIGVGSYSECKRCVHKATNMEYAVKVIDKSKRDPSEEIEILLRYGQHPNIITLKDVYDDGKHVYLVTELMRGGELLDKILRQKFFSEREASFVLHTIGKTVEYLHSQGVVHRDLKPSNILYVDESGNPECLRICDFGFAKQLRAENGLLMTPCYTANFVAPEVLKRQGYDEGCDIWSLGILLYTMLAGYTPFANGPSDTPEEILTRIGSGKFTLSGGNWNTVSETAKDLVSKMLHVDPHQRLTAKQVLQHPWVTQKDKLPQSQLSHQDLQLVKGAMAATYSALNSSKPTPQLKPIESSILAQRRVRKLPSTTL
T1 sequence (P51812 whole entry): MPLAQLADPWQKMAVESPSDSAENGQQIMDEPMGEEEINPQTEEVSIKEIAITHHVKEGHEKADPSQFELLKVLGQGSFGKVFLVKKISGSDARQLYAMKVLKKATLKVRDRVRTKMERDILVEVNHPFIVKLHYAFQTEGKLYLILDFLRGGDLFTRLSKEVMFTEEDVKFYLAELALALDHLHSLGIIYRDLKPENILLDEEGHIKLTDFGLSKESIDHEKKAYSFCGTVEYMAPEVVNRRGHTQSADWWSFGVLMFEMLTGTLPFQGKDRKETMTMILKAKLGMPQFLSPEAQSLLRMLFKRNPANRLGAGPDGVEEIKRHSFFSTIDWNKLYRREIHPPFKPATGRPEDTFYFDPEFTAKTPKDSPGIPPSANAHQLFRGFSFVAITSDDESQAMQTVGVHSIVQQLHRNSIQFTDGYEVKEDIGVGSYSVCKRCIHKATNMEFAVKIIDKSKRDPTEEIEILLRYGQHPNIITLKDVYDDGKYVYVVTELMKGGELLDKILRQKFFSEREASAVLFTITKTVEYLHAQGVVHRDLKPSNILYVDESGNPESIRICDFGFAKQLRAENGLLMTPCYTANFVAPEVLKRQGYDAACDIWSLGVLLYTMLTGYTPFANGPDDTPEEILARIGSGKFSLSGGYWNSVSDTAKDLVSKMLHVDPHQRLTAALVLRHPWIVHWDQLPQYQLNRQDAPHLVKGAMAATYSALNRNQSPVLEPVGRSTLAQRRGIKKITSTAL
Chain of Ribosomal protein S6 kinase alpha-6 (Q9UK32 whole entry): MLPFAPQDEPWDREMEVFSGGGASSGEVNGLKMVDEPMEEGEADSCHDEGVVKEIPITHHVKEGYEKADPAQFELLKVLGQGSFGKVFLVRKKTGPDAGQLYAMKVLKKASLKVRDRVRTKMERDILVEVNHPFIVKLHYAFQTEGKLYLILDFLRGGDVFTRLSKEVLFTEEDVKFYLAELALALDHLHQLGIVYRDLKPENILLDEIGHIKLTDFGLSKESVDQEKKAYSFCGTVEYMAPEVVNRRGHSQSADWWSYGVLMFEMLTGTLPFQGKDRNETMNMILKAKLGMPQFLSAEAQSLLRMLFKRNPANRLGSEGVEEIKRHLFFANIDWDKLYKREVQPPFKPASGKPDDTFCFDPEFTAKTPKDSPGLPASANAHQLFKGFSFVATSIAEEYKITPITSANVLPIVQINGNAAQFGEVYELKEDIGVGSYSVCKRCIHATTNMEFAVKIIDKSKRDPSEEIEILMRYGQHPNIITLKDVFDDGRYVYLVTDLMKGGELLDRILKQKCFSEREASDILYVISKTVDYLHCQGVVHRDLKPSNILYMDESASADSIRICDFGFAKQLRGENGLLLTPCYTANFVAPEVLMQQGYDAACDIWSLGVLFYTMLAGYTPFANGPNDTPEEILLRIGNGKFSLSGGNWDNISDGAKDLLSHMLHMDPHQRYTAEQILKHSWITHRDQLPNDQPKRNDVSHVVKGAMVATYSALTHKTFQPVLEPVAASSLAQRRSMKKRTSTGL
Chain of Ribosomal protein S6 kinase alpha-2 (Q15349 whole entry): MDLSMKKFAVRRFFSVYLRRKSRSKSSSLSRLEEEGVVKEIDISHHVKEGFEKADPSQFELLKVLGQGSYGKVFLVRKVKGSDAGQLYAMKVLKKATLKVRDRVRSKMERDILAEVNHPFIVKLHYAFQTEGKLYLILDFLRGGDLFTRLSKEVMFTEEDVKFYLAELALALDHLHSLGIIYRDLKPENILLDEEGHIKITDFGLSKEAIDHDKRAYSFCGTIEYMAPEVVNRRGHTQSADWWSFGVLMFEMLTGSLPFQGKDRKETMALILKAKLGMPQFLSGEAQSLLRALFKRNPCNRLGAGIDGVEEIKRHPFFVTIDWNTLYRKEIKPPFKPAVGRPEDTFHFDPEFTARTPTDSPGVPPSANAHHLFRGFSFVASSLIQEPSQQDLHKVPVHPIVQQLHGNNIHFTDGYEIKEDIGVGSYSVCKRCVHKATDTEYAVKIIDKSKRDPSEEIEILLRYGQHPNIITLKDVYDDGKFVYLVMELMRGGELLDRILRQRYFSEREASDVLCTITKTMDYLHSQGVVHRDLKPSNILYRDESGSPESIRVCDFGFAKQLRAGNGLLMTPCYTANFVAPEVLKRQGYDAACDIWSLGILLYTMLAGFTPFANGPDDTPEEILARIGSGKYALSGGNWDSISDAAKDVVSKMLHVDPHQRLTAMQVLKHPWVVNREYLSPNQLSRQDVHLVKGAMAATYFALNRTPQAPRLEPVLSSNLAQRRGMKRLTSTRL

- IC50 [1]: 100 nM
SMILES: Cn1cc(C2=C(c3ccc(Cl)cc3Cl)C(=O)NC2=O)c2ccccc21 [SB-216763]

- IC50 [1]: 100 nM
SMILES: O=C1Nc2ccccc2/C1=C1/Nc2ccccc2/C1=N\O

- IC50 [2]: 870 nM
SMILES: CCC[C@@H]1C[C@@H](Oc2c(-c3ccc(O)cc3)oc3cc(O)cc(O)c3c2=O)[C@H](O)[C@H](OC(C)=O)[C@H]1OC(C)=O

- IC50 [3]: 4770 nM
SMILES: O=C1C[C@@H](c2ccc(O)c(O)c2)Oc2cc(O)cc(O)c21 [ERIODICTYOL]

- IC50 [2]: 870 nM
SMILES: CCCNC(=O)O[C@H]1[C@H](CCC)C[C@@H](Oc2c(-c3ccc(O)cc3)oc3cc(O)cc(O)c3c2=O)[C@H](O)[C@@H]1OC(=O)NCCC

- IC50 [4]: 6200 nM
SMILES: CCCNC(=O)O[C@@H]1[C@@H](OC(C)=O)[C@@H](O)[C@H](Oc2c(-c3ccc(O)cc3)oc3cc(O)cc(O)c3c2=O)O[C@H]1CCC

- IC50 [1]: 89 nM
SMILES: CC(=O)O[C@@H]1[C@@H](OC(C)=O)[C@@H](O)[C@H](Oc2c(-c3ccc(O)cc3)oc3cc(O)cc(O)c3c2=O)O[C@H]1C

- IC50 [5]: 225000 nM
SMILES: COC(=O)/C=C/C(=O)OC [DIMETHYL FUMARATE]

- IC50 [6]: 15 nM
SMILES: Cc1ccc(-c2c(C(=O)CCl)n(CCCO)c3ncnc(N)c23)cc1

- IC50 [7]: 2400 nM
- IC50 [8]: 1200 nM
- IC50 [1]: 1500 nM
SMILES: O=C1c2ccccc2-c2c(NCCc3ccccc3)c(=O)[nH]c3cccc1c23

SMILES: CC(C)=CCC1=C(O)C(=O)c2ccccc2C1=O [LAPACHOL]
- IC50 [7]: 2000 nM

- IC50 [1]: 200 nM
SMILES: Cn1cc(C2=C(c3cn(CCCSC(=N)N)c4ccccc34)C(=O)NC2=O)c2ccccc21 [BISINDOLYLMALEIMIDE IX]

- IC50 [1]: 610 nM
SMILES: CN(C)CCCn1cc(C2=C(c3c[nH]c4ccccc34)C(=O)NC2=O)c2ccccc21 [GF-109203]

- IC50 [9]: 10 nM
SMILES: CC(C)CCN1c2nc(Nc3cc(F)c(O)c(F)c3)ncc2N(C)C(=O)C1C (stereo unspecified)
